Reference: patent US6638973B2, “Taxane formulations” (FSU Research Foundation, Inc., priority 2000, dated 2003)
Like-named read-outs stand apart in the source and are kept apart here.

Tested on: HCT116 cells
Assay: In vitro cytotoxicity measured by the cell colony formation assay
Assay type: cell-based
Settings: colonies counted after 7 days, read-out: IN VITRO ID 50 (nm) HCT116
Outline: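 Colony-forming survival was scored 7 days after a 72 h, 37 °C compound exposure followed by washout into fresh medium.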

[1] = HCT116 colony formation, 72 h drug incubation, Example 10, C-10 ester/C-7 hydroxy taxanes
[2] = HCT116 colony formation, 72 h drug incubation, Example 5, C-7 ester/C-10 hydroxy taxanes
[3] = HCT116 cells, 72 h incubation with drug, ID50 = drug concentration producing 50% inhibition of colony formation
[4] = HCT116 cells, 72 h drug incubation, ID50 = drug concentration producing 50% inhibition of colony formation

SMILES	IC50 [1] [nM]	other results
CC(=O)O[C@@]12CO[C@@H]1C[C@H](O)[C@@]1(C)C(=O)[C@H](OC(=O)C3CC3)C3=C(C)[C@@H](OC(=O)[C@H](O)[C@@H](NC(=O)c4ccccc4)C4CC4)C[C@@](O)([C@@H](OC(=O)c4ccccc4)C12)C3(C)C (some centres unmarked) [Compound 0923]	< 1	–
CCC(=O)O[C@H]1C[C@H]2OC[C@@]2(OC(C)=O)C2[C@H](OC(=O)c3ccccc3)[C@]3(O)C[C@H](OC(=O)[C@H](O)[C@@H](NC(=O)c4cccs4)c4ccco4)C(C)=C([C@@H](O)C(=O)[C@@]21C)C3(C)C (some centres unmarked) [Compound 3632]	–	IC50 [2]: < 1 nM
CC(=O)O[C@@]12CO[C@@H]1C[C@H](O)[C@@]1(C)C(=O)[C@H](OC(=O)C(C)C)C3=C(C)[C@@H](OC(=O)[C@H](O)[C@@H](NC(=O)OC(C)(C)C)c4cccs4)C[C@@](O)([C@@H](OC(=O)c4ccccc4)C12)C3(C)C (some centres unmarked) [Compound 2287]	< 1	–
CCC(=O)O[C@H]1C[C@H]2OC[C@@]2(OC(C)=O)C2[C@H](OC(=O)c3ccccc3)[C@]3(O)C[C@H](OC(=O)[C@H](O)[C@@H](NC(=O)c4ccccc4)c4ccsc4)C(C)=C([C@@H](O)C(=O)[C@@]21C)C3(C)C (some centres unmarked) [Compound 3388]	–	IC50 [2]: < 10 nM
CCCC(=O)O[C@H]1C[C@H]2OC[C@@]2(OC(C)=O)C2[C@H](OC(=O)c3ccccc3)[C@]3(O)C[C@H](OC(=O)[C@H](O)[C@@H](NC(=O)c4ccccc4)c4cccs4)C(C)=C([C@@H](O)C(=O)[C@@]21C)C3(C)C (some centres unmarked) [Compound 4175]	–	IC50 [2]: < 10 nM
COC(=O)O[C@H]1C[C@H]2OC[C@@]2(OC(C)=O)C2[C@H](OC(=O)c3ccccc3)[C@]3(O)C[C@H](OC(=O)[C@H](O)[C@@H](NC(=O)OC(C)C)c4cccs4)C(C)=C([C@@H](O)C(=O)[C@@]21C)C3(C)C (some centres unmarked) [Compound 4144]	–	IC50 [3]: < 1 nM
C/C=C/C(=O)N[C@@H](c1ccsc1)[C@@H](O)C(=O)O[C@H]1C[C@@]2(O)[C@@H](OC(=O)c3ccccc3)C3[C@](C)(C(=O)[C@H](O)C(=C1C)C2(C)C)[C@@H](OC(=O)CC)C[C@H]1OC[C@@]31OC(C)=O (some centres unmarked) [Compound 5020]	–	IC50 [2]: < 1 nM
CC(=O)OCC(=O)O[C@H]1C[C@H]2OC[C@@]2(OC(C)=O)C2[C@H](OC(=O)c3ccccc3)[C@]3(O)C[C@H](OC(=O)[C@H](O)[C@@H](NC(=O)OC(C)(C)C)c4ccco4)C(C)=C([C@@H](O)C(=O)[C@@]21C)C3(C)C (some centres unmarked) [Compound 5622]	–	IC50 (HCT116 colony formation, 72 h drug incubation, Example 15, C-7 substituted acetate/C-10 hydroxy taxanes): < 1 nM
CCCC(=O)O[C@H]1C(=O)[C@@]2(C)C([C@H](OC(=O)c3ccccc3)[C@]3(O)C[C@H](OC(=O)[C@H](O)[C@@H](NC(=O)c4ccccc4)c4ccco4)C(C)=C1C3(C)C)[C@]1(OC(C)=O)CO[C@@H]1C[C@@H]2O (some centres unmarked) [Compound 3204]	< 1	–
C/C=C/C(=O)N[C@@H](c1ccoc1)[C@@H](O)C(=O)O[C@H]1C[C@@]2(O)[C@@H](OC(=O)c3ccccc3)C3[C@](C)(C(=O)[C@H](OC(=O)CCC)C(=C1C)C2(C)C)[C@@H](O)C[C@H]1OC[C@@]31OC(C)=O (some centres unmarked) [Compound 4919]	< 1	–
CCC(=O)O[C@H]1C(=O)[C@@]2(C)C([C@H](OC(=O)c3ccccc3)[C@]3(O)C[C@H](OC(=O)[C@H](O)[C@@H](NC(=O)OC(C)(C)C)C(C)C)C(C)=C1C3(C)C)[C@]1(OC(C)=O)CO[C@@H]1C[C@@H]2O (some centres unmarked) [Compound 0583]	< 10	–
CC(=O)OC12COC1CC(O)C1(C)C(=O)C(OC(=O)c3cccs3)C3=C(C)C(OC(=O)C(O)C(NC(=O)OC(C)(C)C)c4ccncc4)CC(O)(C(OC(=O)c4ccccc4)C21)C3(C)C (centres unmarked) [Compound 1954]	< 1	–
CCNC(=O)O[C@H]1C(=O)[C@@]2(C)C([C@H](OC(=O)c3ccccc3)[C@]3(O)C[C@H](OC(=O)[C@H](O)[C@@H](NC(=O)OC(C)(C)C)C4CCC4)C(C)=C1C3(C)C)[C@]1(OC(C)=O)CO[C@@H]1C[C@@H]2O (some centres unmarked) [Compound 2733]	–	IC50 (HCT116 cells, colony formation, 72 h incubation with drug, ID50 = drug concentration producing 50% inhibition of colony formation): < 10 nM
CCCC(=O)O[C@H]1C(=O)[C@@]2(C)C([C@H](OC(=O)c3ccccc3)[C@]3(O)C[C@H](OC(=O)[C@H](O)[C@@H](NC(=O)OCC(C)C)C4CC4)C(C)=C1C3(C)C)[C@]1(OC(C)=O)CO[C@@H]1C[C@@H]2O (some centres unmarked) [Compound 4808]	< 10	–
CCC(=O)O[C@H]1C(=O)[C@@]2(C)C([C@H](OC(=O)c3ccccc3)[C@]3(O)C[C@H](OC(=O)[C@H](O)[C@@H](NC(=O)c4ccncc4)c4cccs4)C(C)=C1C3(C)C)[C@]1(OC(C)=O)CO[C@@H]1C[C@@H]2O (some centres unmarked) [Compound 4207]	< 10	–
C/C=C/C(=O)N[C@@H](c1ccco1)[C@@H](O)C(=O)O[C@H]1C[C@@]2(O)[C@@H](OC(=O)c3ccccc3)C3[C@](C)(C(=O)[C@H](O)C(=C1C)C2(C)C)[C@@H](OC(=O)NCC)C[C@H]1OC[C@@]31OC(C)=O (some centres unmarked) [Compound 5822]	–	IC50 [4]: < 10 nM
CCC(C)(C)OC(=O)N[C@@H](c1ccco1)[C@@H](O)C(=O)O[C@H]1C[C@@]2(O)[C@@H](OC(=O)c3ccccc3)C3[C@](C)(C(=O)[C@H](O)C(=C1C)C2(C)C)[C@@H](OC(=O)Nc1ccc(F)c(F)c1)C[C@H]1OC[C@@]31OC(C)=O (some centres unmarked) [Compound 6404]	–	IC50 [4]: < 10 nM
CCC(=O)O[C@H]1C(=O)[C@@]2(C)C([C@H](OC(=O)c3ccccc3)[C@]3(O)C[C@H](OC(=O)[C@H](O)[C@@H](NC(=O)OC(C)(C)CC)c4ccco4)C(C)=C1C3(C)C)[C@]1(OC(C)=O)CO[C@@H]1C[C@@H]2O (some centres unmarked) [Compound 6522]	< 1	–
C/C=C/C(=O)N[C@@H](c1cccs1)[C@@H](O)C(=O)O[C@H]1C[C@@]2(O)[C@@H](OC(=O)c3ccccc3)C3[C@](C)(C(=O)[C@H](O)C(=C1C)C2(C)C)[C@@H](OC(=O)OCc1ccccc1)C[C@H]1OC[C@@]31OC(C)=O (some centres unmarked) [Compound 6566]	–	IC50 [3]: < 10 nM
CCOC(=O)O[C@H]1C(=O)[C@@]2(C)C([C@H](OC(=O)c3ccccc3)[C@]3(O)C[C@H](OC(=O)[C@H](O)[C@H](C=C(C)C)NC(=O)OC(C)(C)C)C(C)=C1C3(C)C)[C@]1(OC(C)=O)CO[C@@H]1C[C@@H]2O (some centres unmarked) [Compound 1788]	–	IC50 [3]: < 1 nM
C/C=C/C(=O)O[C@H]1C(=O)[C@@]2(C)C([C@H](OC(=O)c3ccccc3)[C@]3(O)C[C@H](OC(=O)[C@H](O)[C@@H](NC(=O)OC(C)(C)C)C(C)C)C(C)=C1C3(C)C)[C@]1(OC(C)=O)CO[C@@H]1C[C@@H]2O (some centres unmarked) [Compound 2413]	< 10	–
CC(=O)OC12COC1CC(O)C1(C)C(=O)C(OC(=O)c3ccco3)C3=C(C)C(OC(=O)C(O)C(NC(=O)OC(C)(C)C)C(C)C)CC(O)(C(OC(=O)c4ccccc4)C21)C3(C)C (centres unmarked) [Compound 2181]	< 10	–
CC(=O)O[C@@]12CO[C@@H]1C[C@H](O)[C@@]1(C)C(=O)[C@H](OC(=O)C3CC3)C3=C(C)[C@@H](OC(=O)[C@H](O)[C@@H](NC(=O)OC(C)(C)C)c4ccoc4)C[C@@](O)([C@@H](OC(=O)c4ccccc4)C12)C3(C)C (some centres unmarked) [Compound 2781]	< 1	–
CCCC(=O)O[C@H]1C[C@H]2OC[C@@]2(OC(C)=O)C2[C@H](OC(=O)c3ccccc3)[C@]3(O)C[C@H](OC(=O)[C@H](O)[C@@H](NC(=O)C=C(C)C)c4cccs4)C(C)=C([C@@H](O)C(=O)[C@@]21C)C3(C)C (some centres unmarked) [Compound 4312]	–	IC50 [2]: < 1 nM
CCC(=O)O[C@H]1C[C@H]2OC[C@@]2(OC(C)=O)C2[C@H](OC(=O)c3ccccc3)[C@]3(O)C[C@H](OC(=O)[C@H](O)[C@@H](NC(=O)c4cccnc4)c4cccs4)C(C)=C([C@@H](O)C(=O)[C@@]21C)C3(C)C (some centres unmarked) [Compound 4106]	–	IC50 [2]: < 10 nM
CCCC(=O)O[C@H]1C(=O)[C@@]2(C)C([C@H](OC(=O)c3ccccc3)[C@]3(O)C[C@H](OC(=O)[C@H](O)[C@@H](NC(=O)c4ccco4)c4cccs4)C(C)=C1C3(C)C)[C@]1(OC(C)=O)CO[C@@H]1C[C@@H]2O (some centres unmarked) [Compound 3352]	< 1	–
